Laboratory results published in patent US20100272814A1, “METHOD AND MEANS FOR PRODUCING BRONCHORELAXATION” (priority 2007, published 2010).

Tests used:
[1] = cited from earlier work; for absorption of the oral intake / oral dose: from food or intestine
[2] = tested on: airway obstruction in a patient with COPD; assay: Administration of iodine on activated charcoal to a patient with COPD (spirometric evaluation and symptoms); assay type: in vivo, human; conditions: oral intake for a few days, subjective observation

SMILES | half time in whole body ([1]; in vivo) | absorption of the oral intake / oral dose [1] | bronchorelaxing effect / relief of airway obstruction [2]
[CH3][Hg][Cl] [Methylmercury] | around 70 days | about 95% | 
II [elemental iodine] |  |  | no distinct bronchorelaxing effect was observed
[Cl][Hg][Cl] [mercuric chloride] |  | about 7% | 
